Experimental data published in patent US8063096B2, “Spirocyclic 3-phenyl-3substituted-4-ketolactams and-lactones” (Bayer Cropscience AG, priority 2001, dated 2011).
Like-named read-outs stand apart in the source and are kept apart here.

Experiments:
Phaedon cochleariae = assay: Phaedon larvae test; type: in vivo; details: 500 ppm active compound, cabbage leaves dipped
Procedure: (§1) [table] To produce a suitable preparation of active compound, 1 part by weight of active compound is mixed with the stated amounts of solvent and emulsifier, and the concentrate is diluted with emulsifier-containing water to the desired concentration. Cabbage leaves (Brassica oleracea) are treated by being dipped into the preparation of active compound of the desired concentration and are populated with larvae of the mustard beetle (Phaedon cochleariae) while leaves are still moist. After the desired period of time, the kill in % is determined. 100% means that all beetle larvae have been killed; 0% means that none of the beetle larvae have been killed.

Tetranychus urticae = assay: Tetranychus test (OP-resistant/dip treatment); type: in vivo; details: 100 ppm active compound, bean plants dipped, OP-resistant
Procedure: [table] To produce a suitable preparation of active compound, 1 part by weight of active compound is mixed with the stated amounts of solvent and emulsifier, and the concentrate is diluted with emulsifier-containing water to the desired concentration. Bean plants (Phaseolus vulgaris) which are heavily infested by all stages of the greenhouse […] spider mite (Tetranychus urticae) are dipped into a preparation of active compound of the desired concentration. After the desired period of time, the activity in % is determined. 100% means that all spider mites have been killed; 0% means that none of the spider mites have been killed.

log P determination = type: physicochemical
Meloidogyne incognita = assay: Meloidogyne test (gall formation on lettuce roots); type: in vivo; details: 20 ppm active compound, nematicidal action by gall formation
Procedure: [table] To produce a suitable preparation of active compound, 1 part by weight of active compound is mixed with the stated amounts of solvent and emulsifier, and the concentrate is diluted with water to the desired concentration. Vessels are filled with sand, solution of active compound, Meloidogyne incognita egg/larvae suspension and lettuce seeds. The lettuce seeds germinate and the plants develop. On the roots, galls develop. After the desired period of time, the nematicidal action is determined in % by the formation of galls. 100% means that no galls have been found; 0% means that the number of galls on the treated plants corresponds to that of the untreated control.

Aphis gossypii [1] = assay: Aphis gossypii test (leaf dip, cotton); type: in vivo; details: 500 ppm active compound, cotton leaves dipped
Procedure: as §1, with “Cotton” for “Cabbage”, “(Gossypium hirsutum) which are heavily infested by the cotton aphids (Aphis gossypii)” for “(Brassica oleracea)”, “concentration.” for “concentration and are populated with larvae of the mustard beetle (Phaedon cochleariae) while leaves are still moist.”, “aphids” for “beetle larvae”

Aphis gossypii [2] = assay: Test for persistency: Aphis gossypii (root-systemic action); type: in vivo; details: 4 ppm in soil, cotton
Procedure: (§2) [table] To produce a suitable preparation of active compound, 1 part by weight of active compound is mixed with the stated amounts of solvent and emulsifier, and the concentrate is diluted with water to the desired concentration. The preparation of active compound is mixed intimately with the soil. The stated concentration refers to the amount of active compound per volume unit of soil (mg/l). The treated soil is filled into pots, and into these pots is planted cotton at the cotyledon stage. In this way, the active compound can be taken up from the soil into the roots of the plants and be transported into the leaves. After the stated number of days, cotton aphids (Aphis gossypii) are, in infection chambers, placed on the leaves. After the desired period of time, the kill in % is determined. 100% means that all aphids have been killed; 0% means that none of the aphids have been killed.

Myzus persicae [3] = assay: Test for persistency: Myzus persicae (root-systemic action); type: in vivo; details: 4 ppm in soil, broad beans
Procedure: as §2, with “pre-germinated broad beans.” for “cotton at the cotyledon stage.”, “peach” for “cotton”, “(Myzus persicae)” for “(Aphis gossypii)”

Setaria [4] = assay: Pre-emergence test, Setaria; type: in vivo; details: pre-emergence/greenhouse; 250 g of ai/ha; after three weeks
Procedure: (§3) [table] To produce a suitable preparation of active compound, 1 part by weight of active compound is mixed with the stated amount of solvent, the stated amount of emulsifier is added and the concentrate is diluted with water to the desired concentration. Seeds of the test plants are sown in normal soil. After about 24 hours, the soil is sprayed with the preparation of active compound such that the particular amounts of active compound desired are applied per unit area. The concentration of the spray liquor is chosen such that the particular amounts of active compound desired are applied in 1000 l of water/ha. After three weeks, the degree of damage to the plants is rated in % damage in comparison to the development of the untreated control. The figures denote: • 0%=no effect (like untreated control) • 100%=total destruction

Alopecurus [5] = assay: Pre-emergence test, Alopecurus; type: in vivo; details: pre-emergence/greenhouse; 250 g of ai/ha; after three weeks
Procedure: as §3

Sinapis [6] = assay: Post-emergence test, Sinapis; type: in vivo; details: post-emergence/greenhouse; 250 g of ai/ha; after three weeks
Procedure: as §3, with “Test plants” for “Seeds”, “a height of 5-15 cm” for “the test plants”, “are” for “are sown in normal soil. After about 24 hours, the soil is”, “(=like” for “(like”

Avena fatua [7] = assay: Pre-emergence test, Avena fatua; type: in vivo; details: pre-emergence/greenhouse; 250 g of ai/ha; after three weeks
Procedure: as §3

Setaria [8] = assay: Post-emergence test, Setaria; type: in vivo; details: post-emergence/greenhouse; 250 g of ai/ha; after three weeks
Procedure: as §3, with “Test plants” for “Seeds”, “a height of 5-15 cm” for “the test plants”, “are” for “are sown in normal soil. After about 24 hours, the soil is”, “(=like” for “(like”

Myzus persicae [9] = assay: Myzus test (leaf dip, cabbage); type: in vivo; details: 500 ppm active compound, cabbage leaves dipped
Procedure: as §1, with “oleracea) which are heavily infested by peach aphids (Myzus persicae)” for “oleracea)”, “concentration.” for “concentration and are populated with larvae of the mustard beetle (Phaedon cochleariae) while leaves are still moist.”, “aphids” for “beetle larvae”

Sugar beet = assay: Pre-emergence test, Sugar beet; type: in vivo; details: pre-emergence/greenhouse; 250 g of ai/ha; after three weeks; crop
Procedure: as §3

Alopecurus [10] = assay: Post-emergence test, Alopecurus; type: in vivo; details: post-emergence/greenhouse; 250 g of ai/ha; after three weeks
Procedure: as §3, with “Test plants” for “Seeds”, “a height of 5-15 cm” for “the test plants”, “are” for “are sown in normal soil. After about 24 hours, the soil is”, “(=like” for “(like”

Avena fatua [11] = assay: Post-emergence test, Avena fatua; type: in vivo; details: post-emergence/greenhouse; 250 g of ai/ha; after three weeks
Procedure: as §3, with “Test plants” for “Seeds”, “a height of 5-15 cm” for “the test plants”, “are” for “are sown in normal soil. After about 24 hours, the soil is”, “(=like” for “(like”

Echinochloa [12] = assay: Post-emergence test, Echinochloa; type: in vivo; details: post-emergence/greenhouse; 250 g of ai/ha; after three weeks
Procedure: as §3, with “Test plants” for “Seeds”, “a height of 5-15 cm” for “the test plants”, “are” for “are sown in normal soil. After about 24 hours, the soil is”, “(=like” for “(like”

Echinochloa [13] = assay: Pre-emergence test, Echinochloa; type: in vivo; details: pre-emergence/greenhouse; 250 g of ai/ha; after three weeks
Procedure: as §3

Sinapis [14] = assay: Pre-emergence test, Sinapis; type: in vivo; details: pre-emergence/greenhouse; 250 g of ai/ha; after three weeks
Procedure: as §3

[15] = pH 2.3, pH 2.3, read-out: logP (2.3)

SMILES: Cc1cc(Cl)cc(Br)c1C1(Cl)C(=O)NC2(CCCOC2)C1=O (stereo not drawn) [Ex. I-1-b-9]
- Kill rate in % after 7d (Phaedon cochleariae): 100%

SMILES: CCc1cc(Cl)c(C2(Cl)C(=O)NC3(CCCOC3)C2=O)c(Br)c1 (stereo not drawn) [Ex. I-1-b-5]
- Kill rate in % after 7d (Tetranychus urticae): 90%

SMILES: COC1CCC2(CC1)OC(=O)C(c1cc(C)c(C)cc1C)([N+](=O)[O-])C2=O (stereo not drawn) [I-2-a-2]
- log P (log P determination; isomer mixture, two values): 4.42
- logP (2.3) (log P determination; pH 2.3): 4.42
- logP (log P determination; pH 2.3, isomer mixture, two values, read-out: log P): 4.17
- logP (log P determination; [15]): 4.17

SMILES: COC1CCC2(CC1)NC(=O)C(Cl)(c1cc(C)ccc1Cl)C2=O (stereo not drawn) [Ex. I-1-a-1]
- Kill rate in % after 7d (Phaedon cochleariae): 100%

SMILES: COC1CCC2(CC1)NC(=O)C(Cl)(c1ccc(OC(F)(F)F)cc1C)C2=O (stereo not drawn) [Ex. I-1-a-22]
- Kill rate in % after 7d (Tetranychus urticae): 100%

SMILES: COC1CCC2(CC1)NC(=O)C(Cl)(c1cc(C)ccc1C)C2=O (stereo not drawn) [Ex. I-1-a-2]
- Kill rate in % after 14d (Meloidogyne incognita): 90%
- Kill rate in % after 6d (Aphis gossypii [1]): 95%
- Kill rate in % after 7d (Tetranychus urticae): 98%

SMILES: Cc1cc(Cl)cc(Cl)c1C1(Cl)C(=O)NC2(CCOC(C)C2)C1=O (stereo not drawn) [Ex. I-1-c-1]
- Kill rate in % after 7d (Aphis gossypii [2]; infection after 7 d): 99%
- Kill rate in % after 7d (Aphis gossypii [2]; infection after 21 d): 99^ %
- Kill rate in % after 7d (Aphis gossypii [2]; infection after 35 d): 98^ %
- Kill rate in % after 7d (Myzus persicae [3]; infection after 7 d): 100%
- Kill rate in % after 7d (Myzus persicae [3]; infection after 21 d): 100%
- Kill rate in % after 7d (Myzus persicae [3]; infection after 35 d): 100%
- Kill rate in % after 6d (Aphis gossypii [1]): 90%

SMILES: Cc1cc(Br)cc(C)c1C1(Cl)C(=O)NC2(CCCOC2)C1=O (stereo not drawn) [Ex. I-1-b-1]
- Kill rate in % after 7d (Tetranychus urticae): 95%

SMILES: COC1CCC2(CC1)NC(=O)C(Cl)(c1ccc(C)cc1C(F)(F)F)C2=O (stereo not drawn) [Ex. I-1-a-16]
- Kill rate in % after 7d (Tetranychus urticae): 100%

SMILES: Cc1cc(Br)cc(Cl)c1C1(Cl)C(=O)NC2(CCCOC2)C1=O (stereo not drawn) [Ex. I-1-b-8]
- Kill rate in % after 7d (Phaedon cochleariae): 100%

SMILES: CCc1cc(Cl)cc(Cl)c1C1(Cl)C(=O)NC2(CCC(OC)CC2)C1=O (stereo not drawn) [Ex. I-1-a-46]
- % damage, Setaria (Setaria [4]): 100%
- % damage, Alopecurus (Alopecurus [5]): 95%
- % damage, Sinapis (Sinapis [6]): 70%
- % damage, Avena fatua (Avena fatua [7]): 100%
- % damage, Setaria (Setaria [8]): 100%
- Kill rate in % after 6d (Myzus persicae [9]): 98%
- % damage, Sugar beet (Sugar beet): 0%
- % damage, Alopecurus (Alopecurus [10]): 100%
- % damage, Avena fatua (Avena fatua [11]): 100%
- % damage, Echinochloa (Echinochloa [12]): 100%
- % damage, Echinochloa (Echinochloa [13]): 100%

SMILES: COC1CCC2(CC1)NC(=O)C(Cl)(c1c(Cl)ccc(C)c1Cl)C2=O (stereo not drawn) [Ex. I-1-a-33]
- Kill rate in % after 14d (Meloidogyne incognita): 98%

SMILES: COC1CCC2(CC1)NC(=O)C(Cl)(c1c(Cl)cc(Cl)c(C)c1Cl)C2=O (stereo not drawn) [Ex. I-1-a-27]
- Kill rate in % after 14d (Meloidogyne incognita): 100%
- Kill rate in % after 6d (Myzus persicae [9]): 90%

SMILES: Cc1cc(Cl)ccc1C1(Cl)C(=O)NC2(CCOCC2)C1=O (stereo not drawn) [Ex. I-1-c-4]
- Kill rate in % after 6d (Myzus persicae [9]): 95%

SMILES: COC1CCC2(CC1)NC(=O)C(Cl)(c1c(C)cc(Br)cc1C)C2=O (stereo not drawn) [Ex. I-1-a-9]
- % damage, Setaria (Setaria [4]): 100%
- % damage, Alopecurus (Alopecurus [5]): 100%
- % damage, Sinapis (Sinapis [14]): 90%
- % damage, Sinapis (Sinapis [6]): 80%
- Kill rate in % after 7d (Phaedon cochleariae): 90%
- % damage, Avena fatua (Avena fatua [7]): 80%
- % damage, Setaria (Setaria [8]): 100%
- % damage, Alopecurus (Alopecurus [10]): 95%
- % damage, Avena fatua (Avena fatua [11]): 90%
- % damage, Echinochloa (Echinochloa [12]): 100%
- % damage, Echinochloa (Echinochloa [13]): 100%

SMILES: COC1CCC2(CC1)NC(=O)C(Cl)(c1c(Cl)cc(Cl)cc1Cl)C2=O (stereo not drawn) [Ex. I-1-a-42]
- Kill rate in % after 14d (Meloidogyne incognita): 90%
- Kill rate in % after 6d (Myzus persicae [9]): 95%

SMILES: COc1cc(C(F)(F)F)cc(Cl)c1C1(Cl)C(=O)NC2(CCC(OC)CC2)C1=O (stereo not drawn) [Ex. I-1-a-5]
- Kill rate in % after 7d (Tetranychus urticae): 95%

SMILES: COC1CCC2(CC1)OC(=O)C(Cl)(c1cc(C)c(C)cc1C)C2=O (stereo not drawn) [Ex. I-2-a-1]
- Kill rate in % after 7d (Myzus persicae [3]; infection after 7 d): 100%
- Kill rate in % after 7d (Myzus persicae [3]; infection after 21 d): 95%
- Kill rate in % after 7d (Myzus persicae [3]; infection after 35 d): 0%
- logP (log P determination; pH 2.3, pH 2.3, read-out: log P (pH 2.3)): 4.07
- logP (log P determination; [15]): 4.07

SMILES: CCOC1CCC2(CC1)NC(=O)C(Cl)(c1cc(C)ccc1Br)C2=O (stereo not drawn) [Ex. I-1-a-41]
- Kill rate in % after 7d (Phaedon cochleariae): 100%
- Kill rate in % after 7d (Tetranychus urticae): 95%
